Assay results as given in patent US20210299134A1, “TREATMENT OF B CELL MALIGNANCIES” (MEI Pharma, Inc., priority 2018, published 2021).

Tests used:
[1] = test system: patients with relapsed B-cell malignancies (FL, CLL/SLL); test: Phase 1b study of Compound A35 as single agent: disease response rate; type: in vivo, human
Method: An intermittent dosing schedule on days 1-7 of a 28-day cycle was then evaluated after 2 cycles of daily dosing, or ≥3 cycles of daily dosing to reduce the risk of immune-related adverse events. For this analysis the intermittent schedule (IS) group is defined as patients who received Compound A35 alone or with rituximab daily for 2 cycles then switched to an intermittent schedule of 1 week per cycle, and the continuous schedule (CS) group is defined as patients who never switched to intermittent dosing or switched to intermittent dosing in cycle 4 or later cycles. Toxicity on CS is managed by a switch to IS.
In an ongoing Phase 1b study, Compound A35 was administered as a single agent in patients with relapsed B-cell malignancies. Patients have been enrolled in 3 cohorts: • Group A: 31 patients enrolled in a dose escalation phase of the study, with Compound A35 administered as a single agent at a dose of 60, 120, and 180 mg/day. In Group A, all patients began receiving Compound A35 on a CS. Approximately 1.5 years after the start of the study, 17 ongoing patients were switched to the IS to prevent delayed immune-mediated toxicities after various duration of exposure on the CS. […]
31 patients received Compound A35 monotherapy at doses ≥60 mg daily on the CS, of whom 2 discontinued Compound A35 in the first 2 cycles of therapy and 29 received >2 cycles.
A very high rate of disease response was reported in 30 patients evaluable for response in the dose escalation cohort, both in FL and CLL/SLL, with no difference in response rate across the 3 doses evaluated (Table 2).

Plasma half-life = type: in vivo; conditions: human, oral, healthy volunteers and patients with B-cell malignancies
Text: It is known that administration of an oral drug over a period equivalent to approximately 7 half-lives is necessary to achieve steady state plasma concentrations required for optimal antitumor activity, and that a period of approximately 7 half-lives is needed to clear a drug from the plasma after treatment interruption. TREGs repopulation occurs approximately 14 days after the administration of a single dose of the anti-CD25 immunotoxin denileukin diftitox (ONTAK®), a drug known to suppress TREGs. Therefore, it was hypothesized that administration of Compound A35 at 60 mg/day for 7 consecutive days will result in steady-state plasma concentrations sufficient to inhibit PI3K5 in target malignant B-cells and that 21 days without treatment will be sufficient to repopulate TREGs, which comprises 7 days to clear Compound A35 from the plasma (˜7 half-lives) and 14 days for reconstitution of TREGs after Compound A35 is cleared from the plasma.

[2] = All evaluable patients, 60 mg, n = 12
[3] = All evaluable patients, 120 mg, n = 12
[4] = All evaluable patients, 180 mg, n = 6
[5] = All evaluable patients, Total (all doses), n = 30
[6] = CLL/SLL, Total (all doses), n = 9
[7] = FL evaluable, Total (all doses), n = 21

For `CN1CCC(c2ccccc2CC(C)(C)Nc2nc(N3CCOCC3)nc(-n3c(C(F)F)nc4ccccc43)n2)CC1` [Compound A35], the “Morphologic and/or metabolic complete response” value [1, 2] was “(42%)”, the “Morphologic and/or metabolic complete response, number of patients” value [1, 2] was 5 and the Overall response rate [1, 2] was “(92%)”. For the same compound, the “Overall response rate, number of patients” value [1, 2] was 11, the “Morphologic and/or metabolic complete response” value [1, 3] was “(33%)” and the “Morphologic and/or metabolic complete response, number of patients” value [1, 3] was 4. The Overall response rate [1, 3] was “(92%)”, the “Overall response rate, number of patients” value [1, 3] was 11 and the “Morphologic and/or metabolic complete response, number of patients” value [1, 4] was 0. The Overall response rate [1, 4] was “(83%)”, the “Overall response rate, number of patients” value [1, 4] was 5 and the “Morphologic and/or metabolic complete response” value [1, 5] was “(30%)”. For the same compound, the “Morphologic and/or metabolic complete response, number of patients” value [1, 5] was 9, the Overall response rate [1, 5] was “(90%)” and the “Overall response rate, number of patients” value [1, 5] was 27. The Morphologic complete response ([1]; CLL/SLL, 60 mg, n = 6) was “(50%)”, the “Morphologic complete response, number of patients” value ([1]; CLL/SLL, 60 mg, n = 6) was 3 and the Overall response rate ([1]; CLL/SLL, 60 mg, n = 6) was “(100%)”. For the same compound, the “Overall response rate, number of patients” value ([1]; CLL/SLL, 60 mg, n = 6) was 6, the “Morphologic complete response, number of patients” value ([1]; CLL/SLL, 120 mg, n = 2) was 0 and the Overall response rate ([1]; CLL/SLL, 120 mg, n = 2) was “(100%)”. The “Overall response rate, number of patients” value ([1]; CLL/SLL, 120 mg, n = 2) was 2, the “Morphologic complete response, number of patients” value ([1]; CLL/SLL, 180 mg, n = 1) was 0 and the Overall response rate ([1]; CLL/SLL, 180 mg, n = 1) was “(100%)”. The “Overall response rate, number of patients” value ([1]; CLL/SLL, 180 mg, n = 1) was 1, the Morphologic complete response [1, 6] was “(33%)” and the “Morphologic complete response, number of patients” value [1, 6] was 3. The Overall response rate [1, 6] was “(100%)”, the “Overall response rate, number of patients” value [1, 6] was 9 and the “Morphologic and/or metabolic complete response” value ([1]; FL evaluable, 60 mg, n = 6) was “(33%)”. The “Morphologic and/or metabolic complete response, number of patients” value ([1]; FL evaluable, 60 mg, n = 6) was 2, the Overall response rate ([1]; FL evaluable, 60 mg, n = 6) was “(83%)” and the “Overall response rate, number of patients” value ([1]; FL evaluable, 60 mg, n = 6) was 5. For the same compound, the “Morphologic and/or metabolic complete response” value ([1]; FL evaluable, 120 mg, n = 10) was “(40%)”, the “Morphologic and/or metabolic complete response, number of patients” value ([1]; FL evaluable, 120 mg, n = 10) was 4 and the Overall response rate ([1]; FL evaluable, 120 mg, n = 10) was “(90%)”. For the same compound, the “Overall response rate, number of patients” value ([1]; FL evaluable, 120 mg, n = 10) was 9, the “Morphologic and/or metabolic complete response, number of patients” value ([1]; FL evaluable, 180 mg, n = 5) was 0 and the Overall response rate ([1]; FL evaluable, 180 mg, n = 5) was “(80%)”. For the same compound, the “Overall response rate, number of patients” value ([1]; FL evaluable, 180 mg, n = 5) was 4, the “Morphologic and/or metabolic complete response” value [1, 7] was “(21%)” and the “Morphologic and/or metabolic complete response, number of patients” value [1, 7] was 6. For the same compound, the Overall response rate [1, 7] was “(86%)”, the “Overall response rate, number of patients” value [1, 7] was 18 and the half-life (Plasma half-life) was ~28 h.
